According to ChEMBL document CHEMBL1201862, “PubChem BioAssay data set” (2004):
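Method: 48-hour compound exposure of cells in 96-well plates, five concentrations, linear interpolation of endpoints. GI50 = concentration required for 50% inhibition of growth.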 Active and inactive are the calls of the source. Cut-off read from the data, not from the text of the source: active = GI50 up to about 1.1 µM and inactive = higher.

How the values were obtained:
Test in all cases: NCI anticancer screen, dose series, 48 h
NCI/ADR-RES = tested on: NCI/ADR-RES
OVCAR-4 = tested on: OVCAR-4
OVCAR-8 = tested on: OVCAR-8
KM-20L2 = tested on: KM-20L2
HOP-92 = tested on: HOP-92
OVCAR-5 = tested on: OVCAR-5
HOP-62 = tested on: HOP-62
K562 = tested on: K562
MCF7 = tested on: MCF7
NCI-H226 = tested on: NCI-H226
SW-620 = tested on: SW-620
RXF 393 = tested on: RXF 393
U-251 = tested on: U-251

Measured: GI50

CCCCCCc1cn([C@H]2C[C@H](O)[C@@H](CO)O2)c(=O)[nH]c1=O
inactive: NCI/ADR-RES > 100 µM | OVCAR-4 > 100 µM | OVCAR-8 > 100 µM | KM-20L2 > 100 µM | HOP-92 > 100 µM | OVCAR-5 > 100 µM | HOP-62 > 10 µM | K562 > 100 µM | MCF7 > 100 µM | NCI-H226 > 100 µM | SW-620 > 100 µM | RXF 393 > 100 µM | U-251 > 100 µM
